Results reported in patent publication US20250129067A1 (Progentos Therapeutics, Inc., priority 2021, published 2025).
pIC50: −log10 of the molar value.

Experiments:
[1] = system: Oligodendrocyte progenitor cells (OPCs); assay: In vitro OPC differentiation assay, GPR17 expression (immunocytochemistry); details: 3 μM (10× concentration, final 0.3 μM); 72 hours; fold change over vehicle
PDGFRα = PDGFRα (Homo sapiens (Human), UniProt P16234); assay: PDGFRα kinase enzyme assay (Promega PDGFRα Kinase Enzyme System, ADP-Glo); assay type: biochemical; details: 11-point dose response, 10,000 nM to 0.169 nM; 150 uM ATP; BLQ = below limit of quantitation; read-out: IC50 Values on PDGFRα Kinase Inhibition, IC50
Description: The PDGFRα enzyme assays were conducted per the manufacturer's directions (Promega PDGFRα Kinase Enzyme System and ADP Glo Assay Cat #V8011). […] 20 ng of purified PDGFRα protein was added to the test article. […] ADP-Glo was added to halt the kinase reaction and deplete the remaining ATP. Kinase detection reagent, containing luciferase and luciferin, was used to convert the ADP signal into luminescence. Luminescence was measured using a Molecular Devices Spectramax ID5 and compared to a standard curve to determine kinase activity. IC50s were calculated using Prism 9, Graphpad software.

Sequence of PDGFRα (P16234 24-1089): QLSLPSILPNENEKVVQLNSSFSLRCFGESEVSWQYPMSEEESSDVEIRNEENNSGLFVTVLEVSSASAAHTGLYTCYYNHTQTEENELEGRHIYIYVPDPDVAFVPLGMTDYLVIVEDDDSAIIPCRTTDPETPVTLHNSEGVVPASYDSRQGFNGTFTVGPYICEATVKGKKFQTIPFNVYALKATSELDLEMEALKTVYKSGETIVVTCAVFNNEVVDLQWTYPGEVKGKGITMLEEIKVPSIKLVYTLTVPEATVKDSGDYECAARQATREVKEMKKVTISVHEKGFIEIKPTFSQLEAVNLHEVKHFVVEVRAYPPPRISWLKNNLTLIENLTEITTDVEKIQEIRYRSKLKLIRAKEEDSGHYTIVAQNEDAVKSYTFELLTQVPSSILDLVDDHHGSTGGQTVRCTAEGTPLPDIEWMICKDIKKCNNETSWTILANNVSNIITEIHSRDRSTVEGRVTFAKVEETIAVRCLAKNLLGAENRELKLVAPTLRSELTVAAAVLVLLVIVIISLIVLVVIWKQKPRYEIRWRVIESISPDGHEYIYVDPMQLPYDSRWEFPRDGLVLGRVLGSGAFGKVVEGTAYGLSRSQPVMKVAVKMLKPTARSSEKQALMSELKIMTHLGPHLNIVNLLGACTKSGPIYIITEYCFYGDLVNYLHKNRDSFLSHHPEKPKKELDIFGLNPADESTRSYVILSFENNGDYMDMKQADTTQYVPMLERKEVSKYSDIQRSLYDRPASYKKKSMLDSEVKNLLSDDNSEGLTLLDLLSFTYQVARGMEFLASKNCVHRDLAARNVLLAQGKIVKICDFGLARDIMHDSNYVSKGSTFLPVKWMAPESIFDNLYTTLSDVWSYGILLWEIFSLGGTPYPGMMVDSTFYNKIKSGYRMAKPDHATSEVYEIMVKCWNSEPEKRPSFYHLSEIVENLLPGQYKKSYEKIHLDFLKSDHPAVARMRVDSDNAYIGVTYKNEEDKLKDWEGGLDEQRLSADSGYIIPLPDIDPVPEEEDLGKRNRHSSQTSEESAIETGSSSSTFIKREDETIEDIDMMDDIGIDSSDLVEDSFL

Row | Compound | GPR17 Fold Induction (Over Vehicle; 3 μM) [1] | pIC50 (PDGFRα)
1 | Cn1cc(-c2ccc3c(N4CC(c5ncc(Cc6ccccc6)cn5)C4)cnn3c2)cn1 [Compound 72, 3-[3-(5-benzylpyrimidin-2-yl)azetidin-1-yl]-6-(1-methyl-1H-pyrazol-4-yl)pyrazolo[1,5-a]pyridine] | 4.75 | 5.53
2 | Cn1cc(-c2ccc3c(C4CCN(c5ncc(Cc6ccccc6)cn5)C4)cnn3c2)cn1 (centres unmarked) [Compound 75, 3-[1-(5-benzylpyrimidin-2-yl)pyrrolidin-3-yl]-6-(1-methyl-1H-pyrazol-4-yl)pyrazolo[1,5-a]pyridine] | 3.34 | 5.18
3 | Cn1cc(-c2ccc3c(-c4ccn(-c5ncc(Cc6ccccc6)cn5)c4)cnn3c2)cn1 [Compound 76, 3-[1-(5-benzylpyrimidin-2-yl)-1H-pyrrol-3-yl]-6-(1-methyl-1H-pyrazol-4-yl)pyrazolo[1,5-a]pyridine] | 6.18 | 6.03
4 | C[C@@H](OC(=O)N1CCN(c2cnn3cc(-c4cnn(C)c4)ccc23)CC1)c1ccccc1F [Compound 81, (1R)-1-(2-Fluorophenyl)ethyl 4-[6-(1-methyl-1H-pyrazol-4-yl)pyrazolo[1,5-a]pyridin-3-yl]piperazine-1-carboxylate] | 6.74 | 7.01
5 | [2H]c1c([2H])c([2H])c(C([2H])([2H])c2cnc(N3CCN(c4cnn5cc(-c6cnn(C)c6)ccc45)CC3)nc2)c([2H])c1[2H] [Compound 82] | 6.50 | 5.60
6 | Cn1cc(-c2cc3ncc(N4CCN(C(=O)OC(C)(C)C)CC4)n3cn2)cn1 [Compound 83, tert-butyl 4-(7-(1-methyl-1H-pyrazol-4-yl)imidazo[1,2-c]pyrimidin-3-yl)piperazine-1-carboxylate] | 6.49 | 6.02
7 | Cn1cc(-c2cc3ncc(N4CCCN(C(=O)OC(C)(C)C)CC4)n3cn2)cn1 [Compound 85, tert-butyl 4-(7-(1-methyl-1H-pyrazol-4-yl)imidazo[1,2-c]pyrimidin-3-yl)-1,4-diazepane-1-carboxylate] | 0.82 | 5.80
8 | COCCn1cc(-c2cc3ncc(N4CCN(C(=O)OC(C)(C)C)CC4)n3cn2)cn1 [Compound 88, tert-butyl 4-(7-(1-(2-methoxyethyl)-1H-pyrazol-4-yl)imidazo[1,2-c]pyrimidin-3-yl)piperazine-1-carboxylate] | 2.90 | 5.79
9 | CC(C)(C)OC(=O)N1CCN(c2cnc3cc(C4CCOC4)ncn23)CC1 (centres unmarked) [Compound 90, tert-butyl 4-(7-(tetrahydrofuran-3-yl)imidazo[1,2-c]pyrimidin-3-yl)piperazine-1-carboxylate] | 0.92 | < 5.00
10 | CC(C)(C)OC(=O)N1CCCN(c2cnc3cc(-c4cccnc4)ncn23)CC1 [Compound 92, tert-butyl 4-(7-(pyridin-3-yl)imidazo[1,2-c]pyrimidin-3-yl)-1,4-diazepane-1-carboxylate] | 0.81 | < 5.00
11 | CC(C)(C)OC(=O)N1CCCN(c2cnc3cc(C4CCOC4)ncn23)CC1 (centres unmarked) [Compound 94, tert-butyl 4-(7-(tetrahydrofuran-3-yl)imidazo[1,2-c]pyrimidin-3-yl)-1,4-diazepane-1-carboxylate] | 1.00 | < 5.00
12 | CN(CCN(C)c1cnc2cc(-c3cnn(C)c3)ncn12)C(=O)OC(C)(C)C [Compound 95, tert-butyl methyl(2-(methyl(7-(1-methyl-1H-pyrazol-4-yl)imidazo[1,2-c]pyrimidin-3-yl)amino)ethyl)carbamate] | 1.16 | < 5.00
13 | CN(CCN(C)c1cnc2nc(-c3cnn(C)c3)ccn12)C(=O)OC(C)(C)C [Compound 96] | 0.50 | < 5.00
14 | COCCn1cc(-c2cc3ncc(N(C)CCN(C)C(=O)OC(C)(C)C)n3cn2)cn1 [Compound 97, tert-butyl (2-((7-(1-(2-methoxyethyl)-1H-pyrazol-4-yl)imidazo[1,2-c]pyrimidin-3-yl)(methyl)amino)ethyl)(methyl)carbamate] | 1.25 | < 5.00
15 | CN(CCN(C)c1cnc2nc(C3CCOC3)ccn12)C(=O)OC(C)(C)C (centres unmarked) [Compound 98] | 0.98 | < 5.00
16 | CN(CCN(C)c1cnc2cc(-c3cccnc3)ncn12)C(=O)OC(C)(C)C [Compound 99, tert-butyl methyl(2-(methyl(7-(pyridin-3-yl)imidazo[1,2-c]pyrimidin-3-yl)amino)ethyl)carbamate] | 0.62 | < 5.00
17 | CN(CCN(C)c1cnc2nc(C3CCOC3)ccn12)C(=O)OC(C)(C)C (centres unmarked) [Compound 100] | 0.83 | < 5.00
18 | COCCn1cc(-c2ccn3c(N4CCN(C(=O)OC(C)(C)C)CC4)cnc3n2)cn1 [Compound 101, tert-butyl 4-(7-(1-(2-methoxyethyl)-1H-pyrazol-4-yl)imidazo[1,2-a]pyrimidin-3-yl)piperazine-1-carboxylate] | 0.67 | 5.47
19 | CC(C)(C)OC(=O)N1CCN(c2cnc3nc(-c4cccnc4)ccn23)CC1 [Compound 102, tert-butyl 4-(7-(pyridin-3-yl)imidazo[1,2-a]pyrimidin-3-yl)piperazine-1-carboxylate] | 0.58 | 5.16
20 | CC(C)(C)OC(=O)N1CCN(c2cnc3nc(C4CCOC4)ccn23)CC1 (centres unmarked) [Compound 103, tert-butyl 4-(7-(tetrahydrofuran-3-yl)imidazo[1,2-a]pyrimidin-3-yl)piperazine-1-carboxylate] | 0.65 | < 5.00
21 | Cc1cn(-c2ccn3c(N4CCN(C(=O)OC(C)(C)C)CC4)cnc3n2)cn1 [Compound 104, tert-butyl 4-(7-(4-methyl-1H-imidazol-1-yl)imidazo[1,2-a]pyrimidin-3-yl)piperazine-1-carboxylate] | 1.40 | 5.55
22 | COCCn1cc(-c2ccn3c(N4CCCN(C(=O)OC(C)(C)C)CC4)cnc3n2)cn1 [Compound 105, tert-butyl 4-(7-(1-(2-methoxyethyl)-1H-pyrazol-4-yl)imidazo[1,2-a]pyrimidin-3-yl)-1,4-diazepane-1-carboxylate] | 0.46 | < 5.00
23 | CC(C)(C)OC(=O)N1CCCN(c2cnc3nc(-c4cccnc4)ccn23)CC1 [Compound 106] | 0.72 | < 5.00
24 | CC(C)(C)OC(=O)N1CCCN(c2cnc3nc(C4CCOC4)ccn23)CC1 (centres unmarked) [Compound 107, tert-butyl 4-(7-(tetrahydrofuran-3-yl)imidazo[1,2-a]pyrimidin-3-yl)-1,4-diazepane-1-carboxylate] | 0.58 | < 5.00
25 | CN(CCN(C)c1cnc2nc(-c3cnn(C)c3)ccn12)C(=O)OC(C)(C)C [Compound 108, tert-butyl methyl(2-(methyl(7-(1-methyl-1H-pyrazol-4-yl)imidazo[1,2-a]pyrimidin-3-yl)amino)ethyl)carbamate] | 0.54 | < 5.00
